From patent publication US20100056522A1, “INTRAOCULAR PRESSURE-LOWERING AGENT COMPRISING COMPOUND HAVING HISTONE DEACETYLASE INHIBITOR EFFECT AS ACTIVE INGREDIENT” (Santen Pharmaceutical Co., Ltd., priority 2007, published 2010) come the findings set out here.

Assay [1] has as its system HDAC (HeLa nuclear extract). The experiment in a line: Test for evaluation of an HDAC inhibitory effect (HDAC Fluorimetric Assay/Drug Discovery Kit, Biomol). The class given is biochemical. As to conditions: final concentration of test compound 30 μM, rates of more than 100% are shown as 100%. As for the experimental part: Using HDAC Fluorimetric Assay/Drug Discovery Kit (manufactured by Biomol), an HDAC inhibitory effect of the present compounds was measured according to the protocol included with the kit. The kit contains Buffer, HeLa nuclear extract (includes an HDAC), Substrate, Developer and Trichostatin A (an HDAC inhibitor).
A test compound was dissolved in dimethyl sulfoxide, whereby a 2 mg/mL solution was prepared. Then, the resulting solution was diluted with Buffer containing 5% dimethyl sulfoxide, whereby a 150 μM test compound solution was prepared.
1) To a 384-well culture plate, the test compound solution was added in an amount of 2 μL per well.
2) HeLa nuclear extract was diluted 30-fold with Buffer. The resulting solution was added in an amount of 3 μL per well and then, incubation was performed at 37° C. for 2 hours.
3) Substrate was diluted 500-fold with Buffer. The resulting solution was added in an amount of 5 μL per well (the final concentration of the test compound was 30 μM) and then, incubation was performed at 37° C. for 10 minutes.
4) Developer was diluted 20-fold with Buffer and Trichostatin A (2 μM) was added to it. The resulting solution was added in an amount of 10 μL per well and then, incubation was performed at room temperature for 15 minutes.
5) The fluorescence intensity of each well was measured using multilabel counter ARVO (manufactured by Wallac) with excitation at 360 nm and emission at 460 nm.
6) A control data was obtained from the same experiment except that Buffer containing 5% DMSO was added instead of the test compound solution as the above-mentioned procedure from 1) to 5).
7) A blank data was obtained from the same experiment except that Buffer containing 5% DMSO was added instead of the test compound solution and that Buffer was added instead of Hela nuclear extract as the above-mentioned procedure from 1) to 5).
Enzyme inhibitory rate (%) was calculated using the following equation.
(Enzyme Inhibitory Rate(%))=100×[1−{(Fluorescence Intensity of Test Compound Solution)−(Florescence Intensity of Blank)}/{(Florescence Intensity of Control)−(Florescence Intensity of Blank)}]

Assay [2] deals with TM-1 cells (human trabecular meshwork cell line). Nature of the assay: Test for evaluation of effect of morphological change on trabecular meshwork cells (cell shape index). The class given is cell-based. Particulars: 10 μM, 24 hours, control CSI 0.679, lower CSI indicates greater morphological change. As for the experimental part:
As a method for evaluating a cellular morphological change, an evaluation system using the cell shape index (hereinafter referred to as “CSI”) as an index has been reported in The Journal of Clinical Investigation, 103, 1141-1150 (1999). Therefore, according to the method described in the above document, an effect of morphological change by the present compounds on trabecular meshwork cells was evaluated.
A human trabecular meshwork cell line (hereinafter referred to as “TM-1 cells”) reported in Investigative Opthalmology & Visual Science, 43, 151-161 (2002) was used.
Culture medium 1: A reagent was prepared by adding fetal bovine serum (10%), L-glutamine (2 mM), amphotericin B (2.5 μg/mL), and gentamicin (25 μg/mL) to Dulbecco's Modified Eagle Medium (hereinafter referred to as “D-MEM”).
Culture medium 2: Fetal bovine serum (3%), L-glutamine (2 mM), amphotericin B (2.5 μg/mL), and gentamicin (25 μg/mL) were added to D-MEM.
Cell staining liquid: A mixed liquid of Calcein-AM (16 μM) and Hoechst 33342 (40 μM) was prepared by diluting a Calcein-AM solution (cytoplasmic staining reagent, manufactured by Dojindo Laboratories) and a Hoechst 33342 solution (nuclear staining reagent, manufactured by Dojindo Laboratories) with D-MEM containing L-glutamine (2 mM), amphotericin B (2.5 μg/mL), and gentamicin (25 μg/mL).
TM-1 cells subcultured at 37° C. in a 8% carbon dioxide gas atmosphere were treated with a trypsin/EDTA solution (0.05% trypsin and 0.53 mM tetrasodium ethylenediaminetetraacetate) at 24 hours before performing a drug treatment mentioned below and seeded on a 96-well culture plate. The culture medium 1 was used for the subculture of the cells. The culture medium 2 was used for the cell culture after seeding the cells on the plate.
A test compound was dissolved in dimethyl sulfoxide, whereby a 5 mM solution was prepared. Then, the resulting solution was diluted with the culture medium 2, whereby a 200 μM test compound solution was prepared.
It has been reported that Y-27632 which is a Rho kinase inhibitor induces a morphological change in trabecular meshwork cells in Investigative Opthalmology & Visual Science, 42, 137-144 (2001). Therefore, Y-27632 (produced according to the method described in WO 90/05723) was used as a positive control, and dissolved in dimethyl sulfoxide in the same manner as the test compound, whereby a 5 mM solution was prepared, and then, the resulting solution was diluted with the culture medium 2, whereby a 200 μM positive control compound solution was prepared.
1) To a 96-well culture plate, a solution of TM-1 cells adjusted to a cell density of […] was added in an amount of 95 μL (1.5×10^4 cells) per well.
2) Incubation was performed at 37° C. in a 8% carbon dioxide gas atmosphere for 24 hours.
3) The test compound solution or positive control compound solution was added in an amount of 5 μL per well (the final concentration of the test compound or positive control compound was 10 μM). As a control, the culture medium 2 containing dimethyl sulfoxide (4%) was added in an amount of 5 μL per well.
4) Incubation was performed at 37° C. in a 8% carbon dioxide gas atmosphere for 24 hours.
5) The cell staining liquid was added in an amount of 10 μL per well.
6) Incubation was performed at 37° C. in a 8% carbon dioxide gas atmosphere for 1 hour to stain the cells.
7) A 37% formaldehyde solution was added in an amount of 10 μL per well.
8) Incubation was performed at room temperature for 1 hour to fix the cells.
9) Washing with phosphate-buffered saline was performed.
10) Using Array Scan Vti HCS reader (manufactured by Cellomics), images of stained cells magnified with a 20-fold objective lens were captured in 80 fields (10 fields×8 wells) per test compound addition group.
11) CSI was calculated for each cell and an average value was obtained for each test compound addition group.
CSI was calculated using the following equation.
CSI=4π×(Cell Area)/(Cell Perimeter)^2

Assay [3] relates to male Japanese White rabbits. The experiment in a line: Test for evaluation of intraocular pressure-lowering effect by intracameral administration. The format is in vivo. Particulars: 1 mM administration liquid, 20 μL intracameral, 8 or 9 hours after administration, vs vehicle control group, 6 cases. The method, then:
In order to evaluate an intraocular pressure-lowering effect of the present compounds, a test for evaluation of intraocular pressure-lowering effect by intracameral administration of a drug using male Japanese White rabbits was performed.
A test compound was dissolved or suspended in physiological saline containing 0.5% dimethyl sulfoxide, whereby a 0.1 mM or 1 mM test compound administration liquid was prepared.
One drop of 0.4% oxybuprocaine hydrochloride eye drop was instilled into both eyes of each male Japanese White rabbit to achieve local anesthesia, and thereafter, the intraocular pressure was measured using an applanation tonometer. Then, by using a syringe fitted with a 30-gauge needle, the test compound administration liquid (20 μL) was intracamerally administered to one eye. As a control, 20 μL of the vehicle (physiological saline containing 0.5% dimethyl sulfoxide) for the test compound was intracamerally administered. After the lapse of a certain period of time from the administration of the test compound or vehicle, one drop of 0.4% oxybuprocaine hydrochloride eye drop was instilled into the administered eye to achieve local anesthesia, and thereafter, the intraocular pressure was measured using an applanation tonometer.
The intraocular pressure-lowering effect of each test compound was evaluated by calculating an intraocular pressure reduction rate. The intraocular pressure reduction rate (%) was calculated using the following equation.
(Intraocular Pressure Reduction Rate(%))=100×[{(Average Value of Intraocular Pressure of Control Group)−(Average Value of Intraocular Pressure of Each Test Compound Administration Group)}/(Average Value of Intraocular Pressure of Control Group)]

Regarding `Nc1ccccc1NC(=O)c1ccc(CN(CCCN2CCCC2)C(=O)Nc2cccnc2)cn1` [Compound 1-58, N-(2-Aminophenyl)-5-[3-(pyridin-3-yl)-1-[3-(pyrrolidin-1-yl)propyl]ureidomethyl]pyridine-2-carboxylic acid amide], the “Enzyme Inhibitory Rate (%)” value in assay [1] came out at 98%. Also, the CSI in assay [2] is reported as 0.518.
The like results for `CN1CCN(CCN(Cc2ccc(C(=O)Nc3ccccc3N)nc2)C(=O)Nc2cccc(F)c2)CC1` [Compound 1-63, N-(2-Aminophenyl)-5-[3-(3-fluorophenyl)-1-[2-(4-methylpiperazin-1-yl)ethyl]ureidomethyl]pyridine-2-carboxylic acid amide] were, in that order, 97% and 0.521.
In the same order, the values of `CN1CCN(CCCN(Cc2ccc(C(=O)Nc3ccccc3N)nc2)C(=O)Nc2ccc3c(c2)OCCO3)CC1` [Compound 1-68, N-(2-Aminophenyl)-5-[3-(2,3-dihydrobenzo[1,4]dioxin-6-yl)-1-[3-(4-methylpiperazin-1-yl)propyl]ureidomethyl]pyridine-2-carboxylic acid amide] are 99% and 0.502.
With `Cc1cccc(NC(=O)N(CCN(C)C)Cc2ccc(C(=O)Nc3ccccc3N)nc2)c1` [Compound 1-79, N-(2-Aminophenyl)-5-[1-(2-dimethylaminoethyl)-3-(3-methylphenyl)ureidomethyl]pyridine-2-carboxylic acid amide], in assay [1], the “Enzyme Inhibitory Rate (%)” value is given as 98%. Further, the CSI in assay [2] is 0.497.
For `Nc1ccccc1NC(=O)c1ccc(CN(CCCCN2CCOCC2)C(=O)Nc2ccc3c(c2)OCCO3)cn1` [Compound 1-90, N-(2-Aminophenyl)-5-[3-(2,3-dihydrobenzo[1,4]dioxin-6-yl)-1-[4-(morpholin-4-yl)butyl]ureidomethyl]pyridine-2-carboxylic acid amide], the “Enzyme Inhibitory Rate (%)” value in assay [1] was determined as 98%. In assay [2], this compound yielded a CSI of 0.480.
With `COc1ccccc1NC(=O)N(CCCCN1CCOCC1)Cc1ccc(C(=O)Nc2ccccc2N)nc1` [Compound 1-115, N-(2-Aminophenyl)-5-[3-(2-methoxyphenyl)-1-[4-(morpholin-4-yl)butyl]ureidomethyl]pyridine-2-carboxylic acid amide], the “Enzyme Inhibitory Rate (%)” value in assay [1] is 97%. The compound further came in with a CSI in assay [2] of 0.467.
In the same order, the values of `Cc1cccc(NC(=O)N(CCCN2CCC(C)CC2)Cc2ccc(C(=O)Nc3ccccc3N)nc2)c1` [Compound 1-116, N-(2-Aminophenyl)-5-[3-(3-methylphenyl)-1-[3-(4-methylpiperidin-1-yl)propyl]ureidomethyl]pyridine-2-carboxylic acid amide] are 100% and 0.455.
For the compound `Nc1ccccc1NC(=O)c1ccc(CN(CCCCCN2CCOCC2)C(=O)NC2CCCC2)cn1` [Compound 1-141, N-(2-Aminophenyl)-5-[3-cyclopentyl-1-[5-(morpholin-4-yl)pentyl]ureidomethyl]pyridine-2-carboxylic acid amide], the “Enzyme Inhibitory Rate (%)” value in assay [1] is 91%. In addition, in assay [2], the CSI was 0.515.
The like results for `CN(C)c1ccc(NC(=O)N(CCCN2CCOCC2)Cc2ccc(C(=O)Nc3ccccc3N)nc2)cc1` [Compound 2-1, N-(2-Aminophenyl)-5-[3-(4-dimethylaminophenyl)-1-[3-(morpholin-4-yl)propyl]ureidomethyl]pyridine-2-carboxylic acid amide] were, in that order, 98% and 0.574.
The like results for `CCN(CC)c1ccc(NC(=O)N(CCCN(C)C)Cc2ccc(C(=O)Nc3ccccc3N)nc2)cc1` [Compound 2-3, N-(2-Aminophenyl)-5-[3-(4-diethylaminophenyl)-1-(3-dimethylaminopropyl)ureidomethy]pyridine-2-carboxylic acid amide] were, in that order, 100% and 0.550.
The like results for `Nc1ccccc1NC(=O)c1ccc(CN(CCO)C(=O)Nc2ccc3c(c2)OCCO3)cn1` [Compound 2-10, N-(2-Aminophenyl)-5-[3-(2,3-dihydrobenzo[1,4]dioxin-6-yl)-1-(2-hydroxyethyl)ureidomethyl]pyridine-2-carboxylic acid amide] were, in that order, 99% and 0.582.
`CN(C)c1ccc(C(=O)NCCCCCCC(=O)NO)cc1` [M 344, 4-Dimethylamino-N-(6-hydroxycarbamoylhexyl)benzamide, reference compound]: the “Enzyme Inhibitory Rate (%)” value in assay [1] was found to be 99%. This compound yielded a CSI in assay [2] of 0.500.
On to `Cc1ccc(C(=O)c2cc(/C=C/C(=O)NO)n(C)c2)cc1` [MC1293, (E)-N-Hydroxy-3-[1-methyl-4-(4-methylbenzoyl)-1H-pyrrol-2-yl]-2-propenamide, reference compound], for which the “Enzyme Inhibitory Rate (%)” value in assay [1] turned out to be 65%. This compound yielded a CSI in assay [2] of 0.628.
As to `O=C(CCCCCCC(=O)Nc1ccccc1)NO` [SAHA, N-Hydroxy-N′-phenyloctanediamide, reference compound], the “Intraocular Pressure Reduction Rate (%)” value in assay [3] amounted to 17%. Also, the CSI in assay [2] was 0.501.
